Assay results as given in PMC5036131, “Fragment-based discovery of a new family of non-peptidic small-molecule cyclophilin inhibitors with potent antiviral activities” (Nature Communications, 2016).

Legend:
[1] = LogD determination by reverse-phase HPLC; assay type: physicochemical; details: octanol/water, pH 7.4
Description: The octanol/water partitioning (LogD) values of compounds were determined from their retention times during reverse-phase HPLC at pH 7.4 with diode array ultraviolet/visible detection. The LogD values were obtained by interpolation within a standard curve (range LogD: 0.3–5.7) generated with seven standards, with LogD values previously determined using the shake-flask method.

Kinetic solubility = assay type: physicochemical; details: target concentration 100 μM, 24 h; for Solubility HCl (pH 1.0): 0.1 N HCl pH 1.0
Description: The solutions were incubated at room temperature with shaking for 24 h and were then centrifuged, and the recovered supernatants assayed by HPLC with diode array ultraviolet/visible detection. Solubility values were calculated by comparing the amount (by chromatographic peak area) of compound detected in the defined test solution with an unextracted standard. Relative chemical stabilities of compounds after 24 h incubation in PBS at 37 °C were also determined. The solubility and chemical stability of a quality-control compound (amprenavir) were determined in parallel.

[2] = Human plasma protein binding, equilibrium dialysis; assay type: in vitro ADME; details: 2 μM, 37 °C, 3 h dialysis
Description: The extent of binding to pooled human plasma and to cell culture medium containing 10% fetal bovine serum was determined by equilibrium dialysis against isotonic phosphate buffer. Equilibrium dialysis was conducted at 37 °C with initial concentrations of compounds of 2 μM in the non-buffer matrix. A 3 h dialysis time was used for equilibration. Following dialysis, plasma samples were drained into pre-weighed polypropylene tubes containing buffer and buffer samples were drained into pre-weighed tubes containing blank plasma. Post-dialysis plasma and buffer weights were measured and recorded for concentration and recovery calculations. After precipitation and centrifugation, LC-MS/MS assays were used for the analysis of each of the protein/phosphate buffer-mixed matrices. Relative binding to human plasma and cell culture medium was determined in a similar manner, except that the two matrices were dialysed against each other directly and the compound was spiked into both matrices. After equilibration, the plasma sample was diluted with blank cell culture medium and the cell culture medium diluted with blank plasma.

CYP2B6 = target: T1, CYP2B6 (Homo sapiens, UniProt P20813); assay: Cytochrome P450 enzyme inhibition assay, CYP2B6; assay type: in vitro ADME; parameters: incubated with human hepatic microsomal fractions and NADPH; from tissue; host or cells: human hepatic microsomal fractions; details: human hepatic microsomal fractions, up to 25 μM
T1 sequence (P20813 1-491): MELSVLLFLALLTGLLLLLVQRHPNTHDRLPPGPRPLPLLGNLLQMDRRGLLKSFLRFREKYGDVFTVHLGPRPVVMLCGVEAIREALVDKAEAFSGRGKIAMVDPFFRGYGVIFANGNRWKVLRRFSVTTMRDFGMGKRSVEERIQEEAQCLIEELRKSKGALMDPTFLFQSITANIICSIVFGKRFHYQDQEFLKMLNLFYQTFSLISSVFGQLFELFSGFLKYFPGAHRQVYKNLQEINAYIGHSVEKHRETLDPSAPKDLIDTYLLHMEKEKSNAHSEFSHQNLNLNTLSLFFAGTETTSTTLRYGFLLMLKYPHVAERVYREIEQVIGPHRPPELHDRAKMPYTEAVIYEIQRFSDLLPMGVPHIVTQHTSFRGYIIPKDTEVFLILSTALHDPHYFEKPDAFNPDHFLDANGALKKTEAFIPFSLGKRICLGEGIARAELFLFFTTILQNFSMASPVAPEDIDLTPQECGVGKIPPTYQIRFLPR
Description: (§1) Up to 25 μM of compounds 29 and 30 was incubated with human hepatic microsomal fractions and NADPH in the presence of individual probe substrates. All assays were designed so that conditions were linear with respect to time and protein concentration. Substrates were present at concentrations equal to or lower than their respective Km values. Enzyme selective products were determined by fluorometry (ethoxyresorufin O-deethylase) or by specific LC-MS/MS assays. Relative enzyme activities were determined by comparison with those assayed with DMSO vehicle instead of inhibitor. IC50 values were calculated by nonlinear curve fitting using a sigmoidal model. Positive control inhibitors for each enzyme were tested in parallel.

CYP2C19 = CYP2C19 (Homo sapiens, UniProt P33261); assay: Cytochrome P450 enzyme inhibition assay, CYP2C19; assay type: in vitro ADME; parameters: incubated with human hepatic microsomal fractions and NADPH; from tissue; host or cells: human hepatic microsomal fractions; details: human hepatic microsomal fractions, up to 25 μM
Sequence of CYP2C19 (P33261 whole entry): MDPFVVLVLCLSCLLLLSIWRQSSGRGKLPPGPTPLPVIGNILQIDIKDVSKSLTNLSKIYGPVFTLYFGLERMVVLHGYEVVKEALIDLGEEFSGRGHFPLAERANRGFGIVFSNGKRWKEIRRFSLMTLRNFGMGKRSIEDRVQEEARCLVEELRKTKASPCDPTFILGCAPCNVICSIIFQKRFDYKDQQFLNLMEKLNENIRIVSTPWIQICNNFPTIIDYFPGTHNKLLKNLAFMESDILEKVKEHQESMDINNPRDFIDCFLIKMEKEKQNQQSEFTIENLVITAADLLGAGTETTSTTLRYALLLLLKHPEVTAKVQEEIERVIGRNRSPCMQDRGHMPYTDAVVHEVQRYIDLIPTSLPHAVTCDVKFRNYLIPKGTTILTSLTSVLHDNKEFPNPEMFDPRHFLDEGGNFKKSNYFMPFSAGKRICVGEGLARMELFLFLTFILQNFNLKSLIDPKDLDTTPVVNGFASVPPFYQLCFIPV
Description: as §1

CYP2D6 = CYP2D6 (Homo sapiens, UniProt P10635); assay: Cytochrome P450 enzyme inhibition assay, CYP2D6; assay type: in vitro ADME; parameters: incubated with human hepatic microsomal fractions and NADPH; from tissue; host or cells: human hepatic microsomal fractions; details: human hepatic microsomal fractions, up to 25 μM
Sequence of CYP2D6 (P10635 whole entry): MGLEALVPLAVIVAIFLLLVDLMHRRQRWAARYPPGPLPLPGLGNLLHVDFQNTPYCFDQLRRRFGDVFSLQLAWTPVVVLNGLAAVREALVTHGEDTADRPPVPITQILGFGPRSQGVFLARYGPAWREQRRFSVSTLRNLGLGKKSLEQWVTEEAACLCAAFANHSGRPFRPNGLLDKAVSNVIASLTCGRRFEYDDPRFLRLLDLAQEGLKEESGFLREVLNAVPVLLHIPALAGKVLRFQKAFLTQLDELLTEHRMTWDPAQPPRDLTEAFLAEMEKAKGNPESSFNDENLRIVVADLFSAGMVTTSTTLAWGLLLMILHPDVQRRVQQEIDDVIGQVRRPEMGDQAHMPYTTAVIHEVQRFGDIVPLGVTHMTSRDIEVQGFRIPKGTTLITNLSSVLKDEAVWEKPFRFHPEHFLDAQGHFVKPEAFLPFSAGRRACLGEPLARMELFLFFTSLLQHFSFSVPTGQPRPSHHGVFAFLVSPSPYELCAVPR
Description: as §1

CSCCC(NC(=O)NCc1ccc(N)cc1)C(=O)N1CCCC1c1ccccc1SC.O=C(O)C(F)(F)F (stereo not shown) [Compound 30]
LogD [1]: 2.6 | Solubility HCl (pH 1.0) (Kinetic solubility): > 100 | Solubility HCl (pH 1.0) (Kinetic solubility; listed as compound 30): very soluble | Solubility PBS (pH 7.4) (Kinetic solubility): > 100 | Solubility PBS (pH 7.4) (Kinetic solubility; listed as compound 30): very soluble | Human plasma binding Bound [2]: 85.1% | Human plasma binding Unbound [2]: 14.9% | IC50 (CYP2B6): > 25 µM | Inhibition of cytochrome P450 activity, IC50 CYP2B6 (CYP2B6): Neither compound 29 nor compound 30 significantly inhibited | IC50 (CYP2C19): > 25 µM | Inhibition of cytochrome P450 activity, IC50 CYP2C19 (CYP2C19): Neither compound 29 nor compound 30 significantly inhibited | Inhibition of cytochrome P450 activity, IC50 CYD2D6 (CYP2D6): Neither compound 29 nor compound 30 significantly inhibited | IC50 (CYP2D6; read-out: Inhibition of cytochrome P450 activity, IC50 CYD2D6): > 25 µM
